Measurements: BindingDB's records for doi:10.1042/BJ20030674 (University of Padova, 2003)

Assay: In vitro kinase assay using purified enzyme, was incubated at room temperature with substrate, and test compounds in the presence of 100 uM ATP/ [gamma-33P] ATP. 33P incorporation was measured with scintillation counter. IC50 values were calculated from dose-response curves; from these calculated apparent inhibition constants (Ki) were obtained usin
Details: pH 7.5

| IC50 | Compound |
| --- | --- |
| 3.6 µM | OCCCNc1cc(-c2ccnc(Nc3cccc(OC(F)(F)C(F)F)c3)n2)ccn1 [3-{[4-(2-{[3-(1,1,2,2-tetrafluoroethoxy)phenyl]amino}pyrimidin-4-yl)pyridin-2-yl]amino}propan-1-ol] |
| 9.6 µM | NCCNc1cc(-c2ccnc(Nc3cccc(Cl)c3)n2)ccn1 [4-{2-[(2-aminoethyl)amino]pyridin-4-yl}-N-(3-chlorophenyl)pyrimidin-2-amine] |
| 3.2 µM | Clc1cccc(Nc2nccc(-c3ccnc(NCCc4cnc[nH]4)c3)n2)c1 [N-(3-chlorophenyl)-4-(2-{[2-(1H-imidazol-4-yl)ethyl]amino}pyridin-4-yl)pyrimidin-2-amine] |
